Key:
[1] = commercially available instant release formulation; cited from earlier work
[2] = 38 volunteers, single 1 mg dose of immediate release anagrelide (Agrylin); cited from earlier work
[3] = tested on: cultured megakaryocytes; conditions: cited from earlier work
[4] = patients with ET or other myeloproliferative diseases; cited from earlier work
[5] = tested on: PDEIII; conditions: cited from earlier work
[6] = Pre-formulation excipient compatibility by high sensitivity isothermal calorimetry; assay type: physicochemical; conditions: binary mixture 1:1, isothermal calorimetry, 24 hours, 30-80° C.
Procedure: Pre-formulation studies utilizing binary mixtures of the API with various excipients (ethylcellulose, Eudragit® RS and RL, Aquacoat® ECD30, ammonium oleate and Surelease® E7 1904) were conducted using a high sensitivity calorimeter in isothermal mode. Excipients were compared on their own and as mixtures with/without saturated sodium chloride solution present. In this technique, the heat changes in samples (API alone, excipient alone, API:excipient (1:1 ratio)) were monitored over 24 hours at a temperature range of 30-80° C. […] Improved dosage forms were formed by employing ethylcellulose in the excipient system and a mode of application including organic (ethanol) spray application due to the insolubility of ethylcellulose in water.

[7] = Repeat-dose dose-escalation study of controlled release anagrelide: pharmacokinetics; assay type: in vivo, human; conditions: for AUC0-inf / AUC0-t / AUC0-τ / Cmax: dose-normalized to 0.2 mg
Procedure: A placebo-controlled, double-blind repeat-dose, dose-escalation, sequential cohort study was conducted to evaluate the pharmacokinetics and pharmacodynamics of a controlled release composition of anagrelide as described herein in healthy subjects. An objective of the study was to explore the dose-response relationship for effects on platelet counts of a low dose range of a composition of anagrelide as described herein in healthy subjects. Other objectives of the study included determining the time course of effect and recovery of a range of doses of the composition including anagrelide on platelet count, determining the effects of a range of doses of the anagrelide compositions on platelet aggregation (collagen and ADP as agonists), determining the single and repeat dose pharmacokinetics of the anagrelide composition, and exploring the safety and tolerability of the compositions given as single doses and repeatedly for up to 21 days.
Eligible subjects were treated as follows: • Subjects were admitted to the unit on day 1 in the morning after an overnight fast and remain in the unit until 4 hours after morning dosing on day 5. • Subjects received a single dose of controlled release composition including anagrelide (or matching placebo) on day 1 in the morning. • Subjects commenced repeat dosing twice a day with the controlled release anagrelide composition on the morning of day 3 and remained in the unit until 4 hours after morning dose on day 5. • Subjects continued repeat twice a day dosing with the controlled release anagrelide composition as outpatients. Dosing continued until the morning of day 23. • All morning doses were taken after an overnight fast of at least 8 hour. • All evening doses were taken at least 2 hour after food consumption. No food was to be consumed for at least 1 hour after any dose (4 hours for the morning doses on day 1 and day 23). • On day 6-day 21, blood was taken pre-dosing of the controlled release anagrelide composition for full blood count (FBC) and platelet count (every day), trough PK (day 7, day 10, day 13, day 16 and day 19) and clinical chemistry (day 13). • Subjects were readmitted to the unit on the morning of day 22 and remained there until day 25 so that the PK of the final dose of the controlled release composition containing anagrelide on day 23 could be followed for 48 hours. • Subjects returned to the clinic daily from day 26 to day 31 for FBC and platelet counts. • Subjects returned for a follow up visit 14-16 days after the last dose of the controlled release composition containing anagrelide. Study Population:
A controlled release composition of anagrelide as described above in Table 4 of Example 1 (composition 2 fast release with seal coat) was used in unit doses of 100 μg and 300 μg, administered orally.
In this protocol, 4 cohorts of 200 μg, 300 μg, 400 μg and 600 μg doses of the controlled release composition including anagrelide administered twice daily were studied.
Platelet count, collagen-induced platelet aggregation, ADP induced platelet aggregation, template bleeding time, AUC0-t, AUC0-∞, Cmax, Cmin, t1/2, λZ and tmax were determined.
The starting dose of 200 μg (as a single dose on day 1 and then twice a day for 21 days) was chosen as a dose unlikely to cause any clinically significant reduction in platelet counts in healthy subjects. This starting dose was chosen because identification of the lowest dose of the controlled release composition containing anagrelide producing any effect on platelet counts was of interest. In each subsequent cohort the dose was increased by […] twice a day with the objective of identifying the dose range that lowers platelet counts by 30-50%. With daily monitoring of platelet counts, this escalation was determined to allow identification of the effective dose range of the controlled release composition of anagrelide without placing the subjects at significant clinical risk.

O=C1NC2=Nc3ccc(Cl)c(Cl)c3CN2C1O (centres unmarked) [3-hydroxy anagrelide, 6,7-dichloro-3-hydroxy-1,5-dihydro-imidazo[2,1-b]quinazolin-2-one]
Terminal half-life [1]: 3.9 h | AUC0-inf ± RSD (%) [2]: 18.0 ± 35.6 ng·h/mL | Cmax ± RSD (%) [2]: 5.47 ± 56.9 ng/mL | Tmax ± RSD (%) [2]: 1.28 ± 58.1 h | t1/2 ± RSD (%) [2]: 2.5 ± 28.7 h | In vitro effects on megakaryocytopoiesis relative to anagrelide [3]: equipotent | Observed half-life [4]: 3.9 h | Share of all drug-related products in the plasma [4]: about 45% | Potency as PDEIII inhibitor relative to anagrelide [5]: 40 times

Cl.O.O=C1CN2Cc3c(ccc(Cl)c3Cl)N=C2N1 [API, 6,7-dichloro-1,5-dihydroimidazo-[2,1-b]quinazolin-2(3H)-one mono-hydrochloride monohydrate]
Compatibility with Aquacoat [6]: not conclusive as to compatibility | Compatibility with Eudragit (RS and RL) [6]: showed evidence of incompatibility | Compatibility with Surelease [6]: showed evidence of incompatibility | Compatibility with ammonium oleate [6]: showed evidence of incompatibility | Compatibility with ethylcellulose [6]: showed evidence of compatibility

O=C1NC2=Nc3ccc(Cl)c(Cl)c3CN2C1O (centres unmarked) [3-Hydroxy-Anagrelide]
Kel ([7]; cohort 1 (0.2 mg), day 1): 0.0985 h⁻¹ | t1/2 ([7]; cohort 1 (0.2 mg), day 1): 7.78 h | Kel ([7]; cohort 1 (0.2 mg), day 23): 0.0608 h⁻¹ | t1/2 ([7]; cohort 1 (0.2 mg), day 23): 12.69 h | Kel ([7]; cohort 2 (0.4 mg), day 1): 0.0641 h⁻¹ | t1/2 ([7]; cohort 2 (0.4 mg), day 1): 11.64 h | Kel ([7]; cohort 2 (0.4 mg), day 23): 0.0527 h⁻¹ | t1/2 ([7]; cohort 2 (0.4 mg), day 23): 13.77 h | Kel ([7]; cohort 3 (0.6 mg), day 1): 0.0673 h⁻¹ | t1/2 ([7]; cohort 3 (0.6 mg), day 1): 12.87 h | Kel ([7]; cohort 4 (0.3 mg), day 1): 0.0596 h⁻¹ | t1/2 ([7]; cohort 4 (0.3 mg), day 1): 15.30 h | Kel ([7]; cohort 4 (0.3 mg), day 23): 0.0492 h⁻¹ | t1/2 ([7]; cohort 4 (0.3 mg), day 23): 15.13 h | AUC0-inf ([7]; cohort 1 (0.2 mg), day 1): 4.6957 ng·h/mL | AUC0-t ([7]; cohort 1 (0.2 mg), day 1): 4.04622 ng·h/mL | AUC0-τ ([7]; cohort 1 (0.2 mg), day 1): 4.17916 ng·h/mL | Cmax ([7]; cohort 1 (0.2 mg), day 1): 0.61542 ng/mL | AUC0-inf ([7]; cohort 1 (0.2 mg), day 23): 7.27841 ng·h/mL | AUC0-τ ([7]; cohort 1 (0.2 mg), day 23): 5.66247 ng·h/mL | Cmax ([7]; cohort 1 (0.2 mg), day 23): 0.75569 ng/mL | AUC0-inf ([7]; cohort 2 (0.4 mg), day 1): 3.98674 ng·h/mL | AUC0-t ([7]; cohort 2 (0.4 mg), day 1): 3.36645 ng·h/mL | AUC0-τ ([7]; cohort 2 (0.4 mg), day 1): 3.04925 ng·h/mL | Cmax ([7]; cohort 2 (0.4 mg), day 1): 0.35828 ng/mL | AUC0-inf ([7]; cohort 2 (0.4 mg), day 23): 6.18331 ng·h/mL | AUC0-τ ([7]; cohort 2 (0.4 mg), day 23): 4.8106 ng·h/mL | Cmax ([7]; cohort 2 (0.4 mg), day 23): 0.5158 ng/mL | AUC0-inf ([7]; cohort 3 (0.6 mg), day 1): 4.6058 ng·h/mL | AUC0-t ([7]; cohort 3 (0.6 mg), day 1): 3.93912 ng·h/mL | AUC0-τ ([7]; cohort 3 (0.6 mg), day 1): 3.50858 ng·h/mL | Cmax ([7]; cohort 3 (0.6 mg), day 1): 0.44422 ng/mL | AUC0-inf ([7]; cohort 4 (0.3 mg), day 1): 4.46186 ng·h/mL | AUC0-t ([7]; cohort 4 (0.3 mg), day 1): 3.40306 ng·h/mL | AUC0-τ ([7]; cohort 4 (0.3 mg), day 1): 2.99087 ng·h/mL | Cmax ([7]; cohort 4 (0.3 mg), day 1): 0.40142 ng/mL | AUC0-inf ([7]; cohort 4 (0.3 mg), day 23): 5.45894 ng·h/mL | AUC0-τ ([7]; cohort 4 (0.3 mg), day 23): 4.28075 ng·h/mL | Cmax ([7]; cohort 4 (0.3 mg), day 23): 0.45837 ng/mL | Tmax (median) ([7]; cohort 1 (0.2 mg), day 1): 4.01 h | Tmax (median) ([7]; cohort 1 (0.2 mg), day 23): 3.00 h | Tmax (median) ([7]; cohort 2 (0.4 mg), day 1): 3.51 h | Tmax (median) ([7]; cohort 2 (0.4 mg), day 23): 3.02 h | Tmax (median) ([7]; cohort 3 (0.6 mg), day 1): 4.00 h | Tmax (median) ([7]; cohort 4 (0.3 mg), day 1): 3.61 h | Tmax (median) ([7]; cohort 4 (0.3 mg), day 23): 3.00 h

NC1=Nc2ccc(Cl)c(Cl)c2CN1 [RL603, 2-amino-5,6-dichloro-3,4-dihydroquinazoline]
AUC0-inf ± RSD (%) [2]: 16.0 ± 32.3 ng·h/mL | Cmax ± RSD (%) [2]: 1.36 ± 34.0 ng/mL | Tmax ± RSD (%) [2]: 2.5 ± 58.5 h | t1/2 ± RSD (%) [2]: 7.8 ± 31.1 h | Activity on TPO-induced stimulation of megakaryocytes / megakaryocytopoiesis [3]: essentially inactive | Observed half-life [4]: 8.7 h | Share of all drug-related products in the plasma [4]: about 33% | Activity against PDE III [5]: essentially inactive
